Legend:
Type in all cases: binding
[1] = molecular target: T1, Lc-LTP2 (Lens culinaris, UniProt A0AT29, Y105A); test: TNS fluorescent probe displacement; details: 4 uM LTP, 10 uM PI(4,5)P2, 3 uM TNS, pH 7.0, 25 °C
T1 construct: recombinant mature protein, overexpressed in Escherichia coli, purified; four disulfide bonds

[2] = molecular target: T2, Lc-LTP2 (Lens culinaris, UniProt A0AT29); test: TNS fluorescent probe displacement; details: 4 uM LTP, 10 uM PI(4,5)P2, 3 uM TNS, pH 7.0, 25 °C
T2 construct: recombinant mature protein, overexpressed in Escherichia coli, purified; four disulfide bonds
T2 sequence (A0AT29 26-118): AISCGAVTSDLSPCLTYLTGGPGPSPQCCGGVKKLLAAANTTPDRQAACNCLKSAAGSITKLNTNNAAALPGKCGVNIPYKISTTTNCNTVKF

[3] = molecular target: T3, Lc-LTP2 (Lens culinaris, UniProt A0AT29, R70A/Y105A); test: TNS fluorescent probe displacement; details: 4 uM LTP, 10 uM PI(4,5)P2, 3 uM TNS, pH 7.0, 25 °C
T3 construct: recombinant mature protein, overexpressed in Escherichia coli, purified; four disulfide bonds
T3 sequence (A0AT29 26-118 R70A/Y105A): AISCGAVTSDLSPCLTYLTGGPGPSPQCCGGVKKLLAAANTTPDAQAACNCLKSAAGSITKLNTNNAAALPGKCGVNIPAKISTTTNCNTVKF

[4] = molecular target: T4, LTP from ragweed (ragweed LTP) (Ambrosia artemisiifolia, UniProt O04004); test: TNS fluorescent probe displacement; details: 4 uM LTP, 10 uM PI(4,5)P2, 3 uM TNS, pH 7.0, 25 °C
T4 construct: recombinant, overexpressed in Escherichia coli, purified; four disulfide bonds
T4 sequence (O04004 26-118): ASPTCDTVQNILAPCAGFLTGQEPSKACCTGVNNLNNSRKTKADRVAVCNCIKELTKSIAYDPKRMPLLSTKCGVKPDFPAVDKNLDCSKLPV

[5] = molecular target: T5, LTP from mugwort (mugwort LTP) (Artemisia vulgaris, UniProt C4MGG9); test: TNS fluorescent probe displacement; details: 4 uM LTP, 10 uM PI(4,5)P2, 3 uM TNS, pH 7.0, 25 °C
T5 construct: gene Art v 3; recombinant, overexpressed in Escherichia coli, purified; four disulfide bonds
T5 sequence (C4MGG9 24-114): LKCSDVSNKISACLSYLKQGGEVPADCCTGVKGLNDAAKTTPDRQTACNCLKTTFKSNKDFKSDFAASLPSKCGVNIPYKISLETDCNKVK

[6] = molecular target: T6, LTP from strawberry (strawberry LTP) (Fragaria x ananassa, UniProt Q8VX12); test: TNS fluorescent probe displacement; details: 4 uM LTP, 10 uM PI(4,5)P2, 3 uM TNS, pH 7.0, 25 °C
T6 construct: recombinant, overexpressed in Escherichia coli, purified; four disulfide bonds

[7] = molecular target: T4, LTP from ragweed (ragweed LTP); test: protein-lipid overlay on membrane lipid strips; details: lipid immobilised, 100 pM per spot; PBS; anti-Lc-LTP2 antibody detection
[8] = molecular target: T5, LTP from mugwort (mugwort LTP); test: protein-lipid overlay on membrane lipid strips; details: lipid immobilised, 100 pM per spot; PBS; anti-Lc-LTP2 antibody detection
[9] = molecular target: T7, LTP from strawberry (strawberry LTP) (Fragaria x ananassa, UniProt Q8VX12); test: protein-lipid overlay on membrane lipid strips; details: lipid immobilised, […] per spot; PBS; anti-Lc-LTP2 antibody detection
T7 construct: gene lpt46; recombinant, overexpressed in Escherichia coli, purified; four disulfide bonds
T7 sequence (Q8VX12 27-117): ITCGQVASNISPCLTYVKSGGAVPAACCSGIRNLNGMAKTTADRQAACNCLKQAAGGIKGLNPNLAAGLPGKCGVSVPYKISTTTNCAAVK

T1 sequence (A0AT29 26-118 Y105A): as the sequence (A0AT29 26-118 R70A/Y105A) above, with A45R counted along it

## PI(4,5)P2
[1]
  % reduction of LTP-TNS fluorescence: 8%
[2]
  % reduction of LTP-TNS fluorescence: 21%
[3]
  % reduction of LTP-TNS fluorescence: 16%
[4]
  % reduction of LTP-TNS fluorescence: 9%
[5]
  % reduction of LTP-TNS fluorescence: 11%
[6]
  % reduction of LTP-TNS fluorescence: 14%

## CCCCCCCCCCCCCCCC(=O)OC[C@H](COP(=O)(O)O[C@@H]1[C@H](O)[C@H](O)[C@@H](OP(=O)(O)O)[C@H](OP(=O)(O)O)[C@H]1O)OC(=O)CCCCCCCCCCCCCCC [PI(4,5)P2 diC16]
[7]
  protein-lipid overlay on membrane lipid strips: Protein-lipid overlay assays with other LTPs from the abovementioned plants led to the same results
[8]
  protein-lipid overlay on membrane lipid strips: Protein-lipid overlay assays with other LTPs from the abovementioned plants led to the same results
[9]
  protein-lipid overlay on membrane lipid strips: Protein-lipid overlay assays with other LTPs from the abovementioned plants led to the same results

Reference: publication PMC7699592, “Interaction between the Lentil Lipid Transfer Protein Lc-LTP2 and Its Novel Signal Ligand PI(4,5)P2” (Membranes, 2020)
